Data taken from PMC4747407 (Oncotarget, 2015).
“Also recorded” adds a separate entry of the source.

How the values were obtained:
[1] = system: Wnt1 (int-1) mammary tumors; experiment: Wnt1 subcutaneous mammary tumor model; details: E6201 40 mg/kg i.v. Q4Dx3; for tumor growth, single agent: E7449 100 mg/kg once daily, Wnt-C59 10 mg/kg once daily
Method: (§1) All studies were performed according to IACUC approved protocols. The general health of mice was monitored daily. Tumor volume was determined by caliper measurements (mm), using the formula (l x w^2)/2 = mm^3, where l and w refer to the larger and smaller perpendicular dimensions collected at each measurement. Tumor dimensions were recorded twice per week starting when tumors reached an approximate size of 100 to 150 mm^3. Body weights were recorded twice per week and relative body weight was calculated as follows: Relative body weight = (body weight on day of measurement/body weight on first day of treatment).
Tumor pieces cut to approximately 2 mm^3 in size were injected subcutaneously in female nude mice. Treatment was initiated approximately 9–10 days post-implantation of mice.

SW480 cells [2] = experiment: Western blot of Wnt/β-catenin pathway proteins in SW480 cells; type: cell-based, human; details: 10 μmol/L, 24 h
Method: (§2) SW480, DLD-1 (Wnt-dependent) or RKO (Wnt-independent) cells were plated in 6-well plates and incubated overnight. Cells were treated with E7449, olaparib or XAV939 and incubated for various time periods prior to processing by SDS PAGE and western blot analysis. […] Following binding of appropriate secondary antibodies labeled with IRDye® (LI-COR), image analysis was performed with Image Studio software for the LI-COR Odyssey system (version 2.1.10).

DLD-1 cells = experiment: Western blot of Wnt/β-catenin pathway proteins in DLD-1 cells; type: cell-based, human; details: 24 h
Method: as §2

SW480 cells [3] = experiment: Gene expression profiling of Wnt-related genes (TLDA qPCR) in SW480 cells; type: cell-based, human; details: 3 μmol/L (XAV939 also 30 μmol/L), 72 h
Method: (§3) Gene expression profiling was performed using a custom designed TaqMan® low density array (TLDA). Total RNA was isolated from cell lines using RNeasy Mini Kit (Qiagen) and from xenograft tumor FFPE tissue using RecoverAll Total Nucleic Acid Isolation (Ambion). Human and mouse, real-time qPCR TLDAs (384-well micro fluidic card) were designed with genes selected based on their involvement in Wnt signalling (see supplementary Tables 2 and 3 for lists of genes on TLDAs). cDNA was generated from total RNA using High Capacity cDNA Reverse Transcription kit (Life Technologies) or SuperScript® VILO™ Master Mix (Life Technologies). 100 ng cDNA was combined with TaqMan® Gene Expression Master Mix (Life Technologies) for the cell lines and TaqMan® Advanced FAST Master Mix (Life Technologies) for the xenograft tissue for each port (in duplicate). TLDAs were run based on recommended cycling times for each master mix. Ct values were calculated and imported into GeneData Analyst for further analysis. To calculate the ΔCts, gene expression was normalized to several housekeeping genes. Relative fold change was calculated by comparison to the DMSO or vehicle-treated controls for each sample. A student's t-test was used to calculate P-values and hierarchical clustering used Manhattan distance and complete linkage plotting of selected significant genes to generate heat maps.

[4] = cited from earlier work
tankyrase = details: read-out: reported IC50 values for tankyrase inhibition; various assays; cited from earlier work
TNKS1/2 = system: TNKS1/2; set-up: method as in Wahlberg et al 48; details: ref Wahlberg et al 48; cited from earlier work
[5] = system: DNA repair mutant DT40 cell lines; experiment: Proliferation assay in panel of isogenic DNA repair mutant DT40 cell lines (XTT); type: cell-based, avian; details: versus wild type DT40
TNKS1 = details: read-out: reported IC50, TNKS1; cited from earlier work
wild type DT40 cells = experiment: cells; details: DT40, 48 h, read-out: IC50, cell proliferation, wild type DT40 cells
PARP2 = details: read-out: reported IC50, PARP2; cited from earlier work
[6] = system: B16-F10 mouse melanoma isografts; experiment: B16-F10 mouse melanoma isograft model, combination with TMZ; type: in vivo; details: E7449 100 mg/kg or TMZ 50 mg/kg, oral once daily
Method: All studies were performed according to IACUC approved protocols. The general health of mice was monitored daily.
TMZ combination in B16-F10 isograft model: female C57BL/6 mice were inoculated subcutaneously with B16-F10 cells (2 × 10^5). Following randomization by body weight, drug treatment was initiated 1 day post-inoculation. […] TMZ was administered daily on days 1 to 5 at 50 mg/kg as a single agent or in combination. […] The control group was treated with vehicle (0.5% methyl cellulose in water). E7449 or vehicle was administered first and when dosing of all animals was complete TMZ was administered to animals receiving the combination.

Wnt1 model tumors = experiment: Gene expression of Wnt-related genes in Wnt1 model tumors (mouse TLDA); type: in vivo; details: 7 days of drug treatment
Method: as §3

[7] = system: MX-1 human breast cancer xenografts; type: in vivo; details: E7449 100 mg/kg oral once daily; carboplatin single i.v. dose 60 mg/kg
Method: as §1
Carboplatin combination in MX-1 orthotopic xenografts: female nude mice were implanted with MX-1 cells (0.5 × 10^6) in the thoracic mammary fat pad. Treatment started on day 3 when the average tumor size was approximately 50 mm^3. Carboplatin was administered as a single intravenous dose at 60 mg/kg on day 3 or 4.

## CCNc1cc(O)c2c(c1)/C=C/C[C@H](O)[C@H](O)C(=O)/C=C\[C@@H](C)[C@H](C)OC2=O [E6201, reference compound]
[1]; recovered post-treatment
  decreased body weight: < 10%
[1]
  tumor growth, single agent: No antitumor activity

## Oc1nc(-c2ccc(C(F)(F)F)cc2)nc2c1CSCC2 [XAV939]
SW480 cells [2]
  Cyclin D1 protein levels: modest decrease
  axin2 protein level: Increased axin2
  reduction of active (non-phosphorylated) β-catenin level: ~ 90%
  reduction of total β-catenin level: ~75%
DLD-1 cells
  effect on levels of β-catenin: robust effect on levels of β-catenin was not observed
SW480 cells [3]
  expression of 6 E7449-responsive genes (NOS3, LGR5, LEF1, NKD1, CYR61, MMP7): altered expression of these 6 genes in the same direction

## CS(=O)(=O)c1ccc(-c2nnc(/C=C/c3nnc(-c4ccc(C#N)cc4)o3)n2-c2ccccc2Cl)nc1 [G007-LK]
[4]
  single agent antitumor activity: inhibit tumor growth as a single agent in certain models
[4]; in vivo
  therapeutic window: very narrow therapeutic window because of intestinal toxicity

## NC(=O)c1cccc2cn(-c3ccc([C@@H]4CCCNC4)cc3)nc12 [niraparib]
tankyrase
  IC50: 0.6 µM

## O=C(c1cc(Cc2n[nH]c(=O)c3ccccc23)ccc1F)N1CCN(C(=O)C2CC2)CC1 [olaparib]
SW480 cells [2]
  Cyclin D1 protein levels: unaffected
  axin2 protein level: remained at basal levels
  β-catenin protein levels: remained unchanged
TNKS1/2
  binding to TNKS1/2 catalytic domain: no significant binding
[5]
  sensitivity of DT40 cells lacking PARP expression: A similar observation
tankyrase
  IC50: […]
SW480 cells [3]
  expression of 6 E7449-responsive genes (NOS3, LGR5, LEF1, NKD1, CYR61, MMP7): no effect or altered expression in the opposite direction
TNKS1
  IC50: […]
Wild type DT40 cells
  IC50: 2.1 µM
PARP2
  IC50: […]

## Cn1nnc2c(C(N)=O)ncn2c1=O [TMZ, temozolomide, reference compound]
[6]
  growth of subcutaneous tumors, single agent: moderately inhibited

## Cc1cc(-c2ccc(CC(=O)Nc3ccc(-c4cccnc4)cc3)cc2)ccn1 [Wnt-C59, reference compound]
Wnt1 model tumors
  expression of Wnt-related genes CAR2, FZD9, LEF1, VIL1 in tumors: significant alteration
[1]
  tumor growth, single agent: significant antitumor activity; also recorded: significantly inhibited tumor growth

## N.N.O=C([O-])C1(C(=O)[O-])CCC1.[Pt+2] [carboplatin, reference compound]
[7]
  antitumor activity, single agent: modest, but statistically significant versus vehicle; also recorded: only modest antitumor activity

## CNCc1ccc(-c2[nH]c3cc(F)cc4c3c2CCNC4=O)cc1 [rucaparib]
TNKS1/2
  binding to TNKS1/2 catalytic domain: binding to the catalytic domain of multiple PARP family members including tankyrases

## C[C@]1(c2nc3c(C(N)=O)cccc3[nH]2)CCCN1 [veliparib]
TNKS1/2
  binding to TNKS1/2 catalytic domain: no significant binding
tankyrase
  IC50: […]
